According to patent US12458021B2, “Microbiocidal derivatives” (SYNGENTA CROP PROTECTION AG, priority 2019, dated 2025):

Assays:
[1] = test system: Blumeria graminis f. sp. tritici (Erysiphe graminis f. sp. tritici); experiment: Blumeria graminis f. sp. tritici / wheat / leaf disc preventative (powdery mildew on wheat); assay type: in vivo; details: foliar, wheat leaf segments cv. Kanzler, inoculated 1 day after application, assessed 6-8 days after application, read-out: control of Blumeria graminis f. sp. tritici (percent disease control compared to untreated)
Text: Example B4: Blumeria graminis f. sp. tritici (Erysiphe graminis f. sp. tritici)/Wheat/Leaf Disc Preventative (Powdery Mildew on Wheat) Wheat leaf segments cv. Kanzler are placed on agar in a multiwell plate (24-well format) and sprayed with the formulated test compound diluted in water. The leaf disks are inoculated by shaking powdery mildew infected plants above the test plates 1 day after application. […] […]-192.

[2] = test system: Puccinia recondita f. sp. tritici; experiment: Puccinia recondita f. sp. tritici / wheat / leaf disc preventative (brown rust); assay type: in vivo; details: foliar, wheat leaf segments cv. Kanzler, inoculated 1 day after application, assessed 7-9 days after application, read-out: control of Puccinia recondita f. sp. tritici, preventative (percent disease control compared to untreated)
Method: Example B11: Puccinia recondita f. sp. tritici/Wheat/Leaf Disc Preventative (Brown Rust) Wheat leaf segments cv. Kanzler are placed on agar in multiwell plates (24-well format) and sprayed with the formulated test compound diluted in water. The leaf disks are inoculated with a spore suspension of the fungus 1 day after application. The inoculated leaf segments are incubated at 19° C. and 75% rh under a light regime of 12 h light/12 h darkness in a climate cabinet and the activity of a compound is assessed as percent disease control compared to untreated when an appropriate level of disease damage appears in untreated check leaf segments (7-9 days after application). […] […]-190.

[3] = test system: Magnaporthe grisea (Pyricularia oryzae); experiment: whole plant or invertebrate; assay type: in vivo; details: foliar, read-out: control of Magnaporthe grisea (percent disease control compared to untreated)
[4] = test system: Glomerella lagenarium (Colletotrichum lagenarium); experiment: Glomerella lagenarium (Colletotrichum lagenarium) / liquid culture (anthracnose); assay type: cell-based; details: Colletotrichum orbiculare, PDB potato dextrose broth, 24° C., 3-4 days after application, read-out: control of Glomerella lagenarium (inhibition of growth, photometric)
Summary of the method: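 Conidia from cryogenic storage suspended in potato dextrose broth and added to DMSO compound solution in plates. Incubated at 24° C; growth inhibition read photometrically 3-4 days after application.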

[5] = test system: Mycosphaerella graminicola (Septoria tritici); experiment: Mycosphaerella graminicola (Septoria tritici) / liquid culture (Septoria blotch); assay type: cell-based; details: Zymoseptoria tritici, PDB potato dextrose broth, 24° C., 4-5 days after application, read-out: control of Mycosphaerella graminicola (inhibition of growth, photometric)
Summary of the method: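 Conidia from cryogenic storage were mixed into potato dextrose broth and added to test compound in DMSO. Plates were incubated at 24° C, and growth inhibition was read photometrically 4-5 days after application.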

Alternaria solani = Alternaria solani / tomato / leaf disc (early blight); assay type: in vivo; details: foliar, tomato leaf disks cv. Baby, inoculated 2 days after application, assessed 5-7 days after application, read-out: control of Alternaria solani (percent disease control compared to untreated)
Method: Example B1: Alternaria solani/Tomato/Leaf Disc (Early Blight) Tomato leaf disks cv. Baby are placed on agar in multiwell plates (24-well format) and sprayed with the formulated test compound diluted in water. The leaf disks are inoculated with a spore suspension of the fungus 2 days after application. The inoculated leaf disks are incubated at 23° C./21° C. […] […]-185.

[6] = test system: Monographella nivalis (Microdochium nivale); experiment: Monographella nivalis (Microdochium nivale) / liquid culture (foot rot cereals); assay type: cell-based; details: PDB potato dextrose broth, 24° C., 4-5 days after application, read-out: control of Monographella nivalis (inhibition of growth, photometric)
Summary of the method: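 Cryostored M. nivalis conidia mixed into potato dextrose broth and added to 96-well plates holding test compound in DMSO. Incubated at 24° C; growth inhibition read photometrically 4-5 days after application.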

COc1ccc(N(C#N)c2cc(F)nc(F)c2)nc1C(=O)NC1CCC1(C)C (stereo not shown) [Compound P-21, 6-[cyano-(2,6-difluoro-4-pyridyl)amino]-N-(2,2-dimethylcyclobutyl)-3-methoxy-pyridine-2-carboxamide]
≥ 80%: pest or weed control at 200 ppm [1] | pest or weed control at 200 ppm [2] | pest or weed control at 200 ppm [3]

COc1ccc(Nc2cc(F)nc(F)c2)nc1C(=O)NCC(C)(C)C [Compound P-30, 6-[(2,6-difluoro-4-pyridyl)amino]-N-(2,2-dimethylpropyl)-3-methoxy-pyridine-2-carboxamide]
≥ 80%: inhibition at 20 ppm [4] | pest or weed control at 200 ppm [1] | pest or weed control at 200 ppm [2] | pest or weed control at 200 ppm [3] | inhibition at 20 ppm [5]

COc1ccc(Nc2cc(F)cc(F)c2)nc1C(=O)NCC1COc2ccccc21 (stereo not shown) [Compound P-60, 6-(3,5-difluoroanilino)-N-(2,3-dihydrobenzofuran-3-ylmethyl)-3-methoxy-pyridine-2-carboxamide]
≥ 80%: pest or weed control at 200 ppm (Alternaria solani) | inhibition at 20 ppm [4] | inhibition at 20 ppm [6] | pest or weed control at 200 ppm [3] | inhibition at 20 ppm [5]

COc1ccc(Nc2cc(F)cc(F)c2)nc1C(=O)NC1COC(C2CC2)C1 (stereo not shown) [Compound P-65, N-(5-cyclopropyltetrahydrofuran-3-yl)-6-(3,5-difluoroanilino)-3-methoxy-pyridine-2-carboxamide]
≥ 80%: pest or weed control at 200 ppm (Alternaria solani) | inhibition at 20 ppm [4] | pest or weed control at 200 ppm [1] | inhibition at 20 ppm [6] | pest or weed control at 200 ppm [3] | inhibition at 20 ppm [5]

COc1ccc(Nc2cc(F)cc(F)c2)nc1C(=O)NCc1c(Cl)cncc1Cl [Compound P-66, N-[(3,5-dichloro-4-pyridyl)methyl]-6-(3,5-difluoroanilino)-3-methoxy-pyridine-2-carboxamide]
≥ 80%: pest or weed control at 200 ppm (Alternaria solani) | inhibition at 20 ppm [4] | inhibition at 20 ppm [6] | pest or weed control at 200 ppm [3] | inhibition at 20 ppm [5]

COc1ccc(Nc2cc(F)cc(F)c2)nc1C(=O)NCC1(C)CCOC1 (stereo not shown) [Compound P-68, 6-(3,5-difluoroanilino)-3-methoxy-N-[(3-methyltetrahydrofuran-3-yl)methyl]pyridine-2-carboxamide]
≥ 80%: pest or weed control at 200 ppm (Alternaria solani) | inhibition at 20 ppm [4] | pest or weed control at 200 ppm [1] | inhibition at 20 ppm [6] | pest or weed control at 200 ppm [3] | inhibition at 20 ppm [5]

COc1ccc(Nc2cc(F)cc(F)c2)nc1C(=O)NC1COC2(CC2)C1 (stereo not shown) [Compound P-70, 6-(3,5-difluoroanilino)-3-methoxy-N-(4-oxaspiro[2.4]heptan-6-yl)pyridine-2-carboxamide]
≥ 80%: pest or weed control at 200 ppm (Alternaria solani) | inhibition at 20 ppm [4] | pest or weed control at 200 ppm [1] | inhibition at 20 ppm [6] | pest or weed control at 200 ppm [2] | pest or weed control at 200 ppm [3] | inhibition at 20 ppm [5]

COc1ccc(Nc2cc(F)cc(F)c2)nc1C(=O)NC1CCS(=O)(=O)CC1 [Compound P-78, 6-(3,5-difluoroanilino)-N-(1,1-dioxothian-4-yl)-3-methoxy-pyridine-2-carboxamide]
≥ 80%: pest or weed control at 200 ppm (Alternaria solani)

COc1ccc(Nc2cnsc2)nc1C(=O)NCC1(C(F)(F)F)CC1 [Compound P-83, 6-(isothiazol-4-ylamino)-3-methoxy-N-[[1-(trifluoromethyl)cyclopropyl]methyl]pyridine-2-carboxamide]
≥ 80%: pest or weed control at 200 ppm (Alternaria solani) | inhibition at 20 ppm [4] | pest or weed control at 200 ppm [1] | inhibition at 20 ppm [6] | inhibition at 20 ppm [5]

C#CCOc1ccc(Nc2cc(F)cc(F)c2)nc1C(=O)NC1CCC1(C)C (stereo not shown) [Compound P-86, 6-(3,5-difluoroanilino)-N-(2,2-dimethylcyclobutyl)-3-prop-2-ynoxy-pyridine-2-carboxamide]
≥ 80%: pest or weed control at 200 ppm (Alternaria solani) | inhibition at 20 ppm [4] | inhibition at 20 ppm [6]

CC(C)Oc1ccc(Nc2cc(F)cc(F)c2)nc1C(=O)NC1CCC1(C)C (stereo not shown) [Compound P-87, 6-(3,5-difluoroanilino)-N-(2,2-dimethylcyclobutyl)-3-isopropoxy-pyridine-2-carboxamide]
≥ 80%: pest or weed control at 200 ppm (Alternaria solani) | inhibition at 20 ppm [4] | inhibition at 20 ppm [6] | pest or weed control at 200 ppm [3]

COc1ccc(Nc2cncc(F)c2)nc1C(=O)NCC(C)(C)C [Compound P-105, N-(2,2-dimethylpropyl)-6-[(5-fluoro-3-pyridyl)amino]-3-methoxy-pyridine-2-carboxamide]
≥ 80%: pest or weed control at 200 ppm [1] | pest or weed control at 200 ppm [2] | pest or weed control at 200 ppm [3]

COc1ccc(Nc2cc(F)nc(F)c2)nc1C(=O)NC1(C)CCCCC1 [Compound P-110, 6-[(2,6-difluoro-4-pyridyl)amino]-3-methoxy-N-(1-methylcyclohexyl)pyridine-2-carboxamide]
≥ 80%: pest or weed control at 200 ppm (Alternaria solani) | inhibition at 20 ppm [4] | pest or weed control at 200 ppm [1] | inhibition at 20 ppm [6] | pest or weed control at 200 ppm [2] | pest or weed control at 200 ppm [3] | inhibition at 20 ppm [5]

COc1ccc(Nc2cc(F)cc(F)c2)[n+]([O-])c1C(=O)NC(C)(C)C [Compound P-117, N-tert-butyl-6-(3,5-difluoroanilino)-3-methoxy-1-oxido-pyridin-1-ium-2-carboxamide]
≥ 80%: inhibition at 20 ppm [4] | pest or weed control at 200 ppm [1] | inhibition at 20 ppm [6] | pest or weed control at 200 ppm [2] | pest or weed control at 200 ppm [3] | inhibition at 20 ppm [5]

COc1ccc(Nc2cc(F)nc(F)c2)nc1C(=O)NC1(C#N)CCCC1 [Compound P-125, N-(1-cyanocyclopentyl)-6-[(2,6-difluoro-4-pyridyl)amino]-3-methoxy-pyridine-2-carboxamide]
≥ 80%: pest or weed control at 200 ppm (Alternaria solani) | pest or weed control at 200 ppm [1] | pest or weed control at 200 ppm [2] | pest or weed control at 200 ppm [3]

COc1ccc(Nc2cc(Cl)cc(Cl)c2)nc1C(=O)NC(C)(C)C [Compound P-148, N-tert-butyl-6-(3,5-dichloroanilino)-3-methoxy-pyridine-2-carboxamide]
≥ 80%: pest or weed control at 200 ppm (Alternaria solani) | inhibition at 20 ppm [4] | inhibition at 20 ppm [6] | pest or weed control at 200 ppm [2] | pest or weed control at 200 ppm [3] | inhibition at 20 ppm [5]

COc1ccc(Nc2cc(F)cc(F)c2)nc1C(=O)NC1(c2cccc(Cl)n2)CCC1 [Compound P-177, N-[1-(6-chloro-2-pyridyl)cyclobutyl]-6-(3,5-difluoroanilino)-3-methoxy-pyridine-2-carboxamide]
≥ 80%: inhibition at 20 ppm [4] | pest or weed control at 200 ppm [1] | inhibition at 20 ppm [6] | pest or weed control at 200 ppm [2] | pest or weed control at 200 ppm [3] | inhibition at 20 ppm [5]
